The values that follow are results of earlier work, collected in patent publication US20150101082A1, “PROCESSING SEEDS BY COLD PLASMA TREATMENT TO REDUCE AN APPARENT CONTACT ANGLE OF SEEDS COAT SURFACE” (priority 2012, published 2015).

By LC50 is commonly meant the concentration that kills 50% of the test population. Broadly, the LD50 is the dose expected to kill half of the subjects tested.

Structures are written as SMILES.

In data set [1] the test system is mice. The settings on record: inhalation, 7 hours.
For data set [2], the system named is mice. The settings on record: oral.
Data set [3] relates to rats. The note with it: oral.

For `Nc1ccccc1` [Aniline], the LC50 in data set [1] was 175 ppm.

For the compound `NN` [Hydrazine], the LD50 in data set [2] and in data set [3] was approximately 60 mg/kg in each case.
